Experimental data taken from patent US20090022720A1, “Conjugate of an antibody against CD4 and antifusogenic peptides” (priority 2007, published 2009).

What was measured:
NL-BAL (R5) = assay: Single-cycle antiviral activity assay (luciferase, JC53-BL cells), NL-BAL; assay type: cell-based, HIV; details: Table 3, by weight, pseudotyped virus, 3 day incubation
Procedure: For the production of pseudotyped NL-Bal viruses, plasmid pNL4-3Δenv (HIV pNL4-3 genomic construct with a deletion within the env gene) and pcDNA3.1/NL-BAL env (pcDNA3.1 plasmid containing NL-Bal env gene (obtained from NIBSC Centralized Facility for AIDS Reagents)) were co-transfected into the HEK 293FT cell line (Invitrogen Corp.), cultured in Dulbecco's modified minimum medium (DMEM) containing 10% fetal calf serum (FCS), 100 U/mL Penicillin, 100 μg/mL Streptomycin, 2 mM L-glutamine and 0.5 mg/mL geniticin (all media from Invitrogen/Gibco). The supernatants containing pseudotyped viruses were harvested two days following transfection, and cellular debris was removed by filtration through a […] pore size PES (polyethersulfone) filter (Nalgene) and stored at −80° C. in aliquots. For normalization in assay performance, virus stock aliquots were used to infect JC53-BL (US NIH Aids Reagent Program) cells yielding approximately 1.5×10^5 RLU (relative light units) per well. […] The assay plates were read on a Luminometer (Luminoskan, Thermo Electron Corporation) after 10 minutes of incubation at room temperature. Percent inhibition of luciferase activity was calculated for each dose point after subtracting the background, and IC50 and IC90-values were determined by using XLfit curve fitting software for Excel (version 3.0.5 Build12; Microsoft).

NL-BAL = assay: Antiviral activity assay in peripheral blood mononuclear cells (PBMC), p24 ELISA, NL-BAL; assay type: cell-based, HIV-1; details: Table 5, by weight; human PBMC, 6 days
Procedure: Human PBMC are isolated from buffy-coats (obtained from the Stanford Blood Center) by a Ficoll-Paque (Amersham, Piscataway, N.J., USA) density gradient centrifugation according to manufacturer's protocol. Briefly, blood is transferred from the buffy coats in 50 ml conical tubes and diluted with sterile Dulbecco's phosphate buffered saline (Invitrogen/Gibco) to a final volume of 50 ml. Twenty-five ml of the diluted blood are transferred to two 50 ml conical tubes, carefully underlayerd with 12.5 ml of Ficoll-Paque Plus (Amersham Biosciences) and centrifuged at room temperature for 20 min. at 450×g without braking. The white cell layer is carefully transferred to a new 50 ml conical tube and washed twice with PBS. To remove remaining red blood cells, cells are incubated for 5 min. at room temperature with ACK lysis buffer (Biosource) and washed one more time with PBS. PBMC are counted and incubated at a concentration of 2-4×10^6 cells/ml in RPMI1640 containing 10% FCS (Invitrogen/Gibco), 1% penicillin/streptomycin, 2 mM L-glutamine, 1 mM sodium-pyruvate, and 2 μg/ml Phyto-hemagglutinin (Invitrogen) for 24 h at 37° C. […] Virus production is measured at the end of infection by using p24 ELISA (HIV-1 p24 ELISA #NEK050B, Perkin Elmer/NEN) using the sigmoid dose-response model with one binding site in Microsoft Excel Fit (version 3.0.5 Build 12; equation 205; Microsoft).

NMTWMEWDREINQYTSLIHSLIEESQNQQEKNEQELL [afp-1]
Antiviral activity NL-BAL (R5) IC50 (NL-BAL (R5)): 19.6/— ng/mL | Antiviral activity NL-BAL IC90 (NL-BAL): —/57.6 ng/mL
